Experiments:
Assay in all cases: post-emergence herbicidal activity, greenhouse
Format in all cases: in vivo
[1] = tested on: Morningglory
In short: (§1)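 Plants grown from seed or perennial propagules in greenhouse soil pans were sprayed at two to three weeks with compound solution or suspension containing about 0.4% emulsifier, at the stated application rates. Injury relative to untreated controls was scored at approximately two and four weeks after treatment on a post-emergence activity index.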

[2] = tested on: Crabgrass; details: Table II
In short: as §1

[3] = tested on: Wild Buckwheat; details: Table II
In short: as §1

[4] = tested on: Hemp Sesbania; details: Table II
In short: as §1

[5] = tested on: Cocklebur
In short: as §1

[6] = tested on: Sorghum; details: Table II
In short: as §1

[7] = tested on: Lambsquarters
In short: as §1

[8] = tested on: Yellow Nutsedge; details: Table I, 4 WAT
In short: as §1

[9] = tested on: Quackgrass; details: Table I, 4 WAT
In short: as §1

[10] = tested on: Panicum Spp; details: Table II
In short: as §1

[11] = tested on: Wheat; details: Table II
In short: as §1

[12] = tested on: Sugar Beet; details: Table II
In short: as §1

[13] = tested on: Velvetleaf
In short: as §1

[14] = tested on: Smartweed; details: Table I, 4 WAT
In short: as §1

[15] = tested on: Barnyardgrass
In short: as §1

[16] = tested on: Downy Brome
In short: as §1

[17] = tested on: Johnsongrass; details: Table I, 4 WAT
In short: as §1

[18] = tested on: Soybean; details: Table II
In short: as §1

[19] = tested on: Canada Thistle; details: Table I, 4 WAT
In short: as §1

[20] = tested on: Rice; details: Table II
In short: as §1

SMILES: CSSN(CC#N)CP(=O)(Oc1ccccc1)Oc1ccccc1 [VII]
- post-emergence herbicidal activity index ([1]; Table I, 4 WAT, 5.6 kg/h): 2 (50-74% control)
- post-emergence herbicidal activity index ([1]; Table I, 4 WAT, 11.2 kg/h): 2 (50-74% control)
- post-emergence herbicidal activity index ([1]; Table II, 2 WAT, 0.056 kg/h): 0 (0-24% control)
- post-emergence herbicidal activity index ([1]; Table II, 2 WAT, 0.28 kg/h): 1 (25-49% control)
- post-emergence herbicidal activity index ([1]; Table II, 2 WAT, 1.12 kg/h): 1 (25-49% control)
- post-emergence herbicidal activity index ([1]; Table II, 2 WAT, 5.6 kg/h): 2 (50-74% control)
- post-emergence herbicidal activity index ([1]; Table II, 4 WAT, 1.12 kg/h): 0 (0-24% control)
- post-emergence herbicidal activity index ([1]; Table II, 4 WAT, 5.6 kg/h): 2 (50-74% control)
- post-emergence herbicidal activity index ([2]; 2 WAT, 0.056 kg/h): 0 (0-24% control)
- post-emergence herbicidal activity index ([2]; 2 WAT, 0.28 kg/h): 1 (25-49% control)
- post-emergence herbicidal activity index ([2]; 2 WAT, 1.12 kg/h): 3 (75-99% control)
- post-emergence herbicidal activity index ([2]; 2 WAT, 5.6 kg/h): 4 (100% control)
- post-emergence herbicidal activity index ([2]; 4 WAT, 1.12 kg/h): 3 (75-99% control)
- post-emergence herbicidal activity index ([2]; 4 WAT, 5.6 kg/h): 4 (100% control)
- post-emergence herbicidal activity index ([3]; 2 WAT, 0.056 kg/h): 0 (0-24% control)
- post-emergence herbicidal activity index ([3]; 2 WAT, 0.28 kg/h): 1 (25-49% control)
- post-emergence herbicidal activity index ([3]; 2 WAT, 1.12 kg/h): 0 (0-24% control)
- post-emergence herbicidal activity index ([3]; 2 WAT, 5.6 kg/h): 2 (50-74% control)
- post-emergence herbicidal activity index ([3]; 4 WAT, 1.12 kg/h): 0 (0-24% control)
- post-emergence herbicidal activity index ([3]; 4 WAT, 5.6 kg/h): 3 (75-99% control)
- post-emergence herbicidal activity index ([4]; 2 WAT, 0.056 kg/h): 0 (0-24% control)
- post-emergence herbicidal activity index ([4]; 2 WAT, 0.28 kg/h): 0 (0-24% control)
- post-emergence herbicidal activity index ([4]; 2 WAT, 1.12 kg/h): 0 (0-24% control)
- post-emergence herbicidal activity index ([4]; 2 WAT, 5.6 kg/h): 1 (25-49% control)
- post-emergence herbicidal activity index ([4]; 4 WAT, 1.12 kg/h): 0 (0-24% control)
- post-emergence herbicidal activity index ([4]; 4 WAT, 5.6 kg/h): 1 (25-49% control)
- post-emergence herbicidal activity index ([5]; Table I, 4 WAT, 5.6 kg/h): 2 (50-74% control)
- post-emergence herbicidal activity index ([5]; Table I, 4 WAT, 11.2 kg/h): 3 (75-99% control)
- post-emergence herbicidal activity index ([5]; Table II, 2 WAT, 0.056 kg/h): 0 (0-24% control)
- post-emergence herbicidal activity index ([5]; Table II, 2 WAT, 0.28 kg/h): 1 (25-49% control)
- post-emergence herbicidal activity index ([5]; Table II, 2 WAT, 1.12 kg/h): 1 (25-49% control)
- post-emergence herbicidal activity index ([5]; Table II, 2 WAT, 5.6 kg/h): 2 (50-74% control)
- post-emergence herbicidal activity index ([5]; Table II, 4 WAT, 1.12 kg/h): 1 (25-49% control)
- post-emergence herbicidal activity index ([5]; Table II, 4 WAT, 5.6 kg/h): 3 (75-99% control)
- post-emergence herbicidal activity index ([6]; 2 WAT, 0.056 kg/h): 0 (0-24% control)
- post-emergence herbicidal activity index ([6]; 2 WAT, 0.28 kg/h): 1 (25-49% control)
- post-emergence herbicidal activity index ([6]; 2 WAT, 1.12 kg/h): 1 (25-49% control)
- post-emergence herbicidal activity index ([6]; 2 WAT, 5.6 kg/h): 2 (50-74% control)
- post-emergence herbicidal activity index ([6]; 4 WAT, 1.12 kg/h): 2 (50-74% control)
- post-emergence herbicidal activity index ([6]; 4 WAT, 5.6 kg/h): 3 (75-99% control)
- post-emergence herbicidal activity index ([7]; Table I, 4 WAT, 5.6 kg/h): 3 (75-99% control)
- post-emergence herbicidal activity index ([7]; Table I, 4 WAT, 11.2 kg/h): 4 (100% control)
- post-emergence herbicidal activity index ([7]; Table II, 2 WAT, 0.056 kg/h): 0 (0-24% control)
- post-emergence herbicidal activity index ([7]; Table II, 2 WAT, 0.28 kg/h): 1 (25-49% control)
- post-emergence herbicidal activity index ([7]; Table II, 2 WAT, 1.12 kg/h): 1 (25-49% control)
- post-emergence herbicidal activity index ([7]; Table II, 2 WAT, 5.6 kg/h): 3 (75-99% control)
- post-emergence herbicidal activity index ([7]; Table II, 4 WAT, 1.12 kg/h): 0 (0-24% control)
- post-emergence herbicidal activity index ([7]; Table II, 4 WAT, 5.6 kg/h): 4 (100% control)
- post-emergence herbicidal activity index ([8]; 5.6 kg/h): 2 (50-74% control)
- post-emergence herbicidal activity index ([8]; 11.2 kg/h): 2 (50-74% control)
- post-emergence herbicidal activity index ([9]; 5.6 kg/h): 2 (50-74% control)
- post-emergence herbicidal activity index ([9]; 11.2 kg/h): 1 (25-49% control)
- post-emergence herbicidal activity index ([10]; 2 WAT, 0.056 kg/h): 0 (0-24% control)
- post-emergence herbicidal activity index ([10]; 2 WAT, 0.28 kg/h): 0 (0-24% control)
- post-emergence herbicidal activity index ([10]; 2 WAT, 1.12 kg/h): 0 (0-24% control)
- post-emergence herbicidal activity index ([10]; 2 WAT, 5.6 kg/h): 1 (25-49% control)
- post-emergence herbicidal activity index ([10]; 4 WAT, 1.12 kg/h): 0 (0-24% control)
- post-emergence herbicidal activity index ([10]; 4 WAT, 5.6 kg/h): 2 (50-74% control)
- post-emergence herbicidal activity index ([11]; 2 WAT, 0.056 kg/h): 0 (0-24% control)
- post-emergence herbicidal activity index ([11]; 2 WAT, 0.28 kg/h): 1 (25-49% control)
- post-emergence herbicidal activity index ([11]; 2 WAT, 1.12 kg/h): 1 (25-49% control)
- post-emergence herbicidal activity index ([11]; 2 WAT, 5.6 kg/h): 2 (50-74% control)
- post-emergence herbicidal activity index ([11]; 4 WAT, 1.12 kg/h): 0 (0-24% control)
- post-emergence herbicidal activity index ([11]; 4 WAT, 5.6 kg/h): 3 (75-99% control)
- post-emergence herbicidal activity index ([12]; 2 WAT, 0.056 kg/h): 0 (0-24% control)
- post-emergence herbicidal activity index ([12]; 2 WAT, 0.28 kg/h): 0 (0-24% control)
- post-emergence herbicidal activity index ([12]; 2 WAT, 1.12 kg/h): 0 (0-24% control)
- post-emergence herbicidal activity index ([12]; 2 WAT, 5.6 kg/h): 1 (25-49% control)
- post-emergence herbicidal activity index ([12]; 4 WAT, 1.12 kg/h): 0 (0-24% control)
- post-emergence herbicidal activity index ([12]; 4 WAT, 5.6 kg/h): 1 (25-49% control)
- post-emergence herbicidal activity index ([13]; Table I, 4 WAT, 5.6 kg/h): 1 (25-49% control)
- post-emergence herbicidal activity index ([13]; Table I, 4 WAT, 11.2 kg/h): 1 (25-49% control)
- post-emergence herbicidal activity index ([13]; Table II, 2 WAT, 0.056 kg/h): 0 (0-24% control)
- post-emergence herbicidal activity index ([13]; Table II, 2 WAT, 0.28 kg/h): 0 (0-24% control)
- post-emergence herbicidal activity index ([13]; Table II, 2 WAT, 1.12 kg/h): 1 (25-49% control)
- post-emergence herbicidal activity index ([13]; Table II, 2 WAT, 5.6 kg/h): 2 (50-74% control)
- post-emergence herbicidal activity index ([13]; Table II, 4 WAT, 1.12 kg/h): 0 (0-24% control)
- post-emergence herbicidal activity index ([13]; Table II, 4 WAT, 5.6 kg/h): 2 (50-74% control)
- post-emergence herbicidal activity index ([14]; 5.6 kg/h): 2 (50-74% control)
- post-emergence herbicidal activity index ([14]; 11.2 kg/h): 4 (100% control)
- post-emergence herbicidal activity index ([15]; Table I, 4 WAT, 5.6 kg/h): 2 (50-74% control)
- post-emergence herbicidal activity index ([15]; Table I, 4 WAT, 11.2 kg/h): 3 (75-99% control)
- post-emergence herbicidal activity index ([15]; Table II, 2 WAT, 0.056 kg/h): 0 (0-24% control)
- post-emergence herbicidal activity index ([15]; Table II, 2 WAT, 0.28 kg/h): 0 (0-24% control)
- post-emergence herbicidal activity index ([15]; Table II, 2 WAT, 1.12 kg/h): 1 (25-49% control)
- post-emergence herbicidal activity index ([15]; Table II, 2 WAT, 5.6 kg/h): 3 (75-99% control)
- post-emergence herbicidal activity index ([15]; Table II, 4 WAT, 1.12 kg/h): 1 (25-49% control)
- post-emergence herbicidal activity index ([15]; Table II, 4 WAT, 5.6 kg/h): 3 (75-99% control)
- post-emergence herbicidal activity index ([16]; Table I, 4 WAT, 5.6 kg/h): 3 (75-99% control)
- post-emergence herbicidal activity index ([16]; Table I, 4 WAT, 11.2 kg/h): 2 (50-74% control)
- post-emergence herbicidal activity index ([16]; Table II, 2 WAT, 0.056 kg/h): 0 (0-24% control)
- post-emergence herbicidal activity index ([16]; Table II, 2 WAT, 0.28 kg/h): 0 (0-24% control)
- post-emergence herbicidal activity index ([16]; Table II, 2 WAT, 1.12 kg/h): 1 (25-49% control)
- post-emergence herbicidal activity index ([16]; Table II, 2 WAT, 5.6 kg/h): 1 (25-49% control)
- post-emergence herbicidal activity index ([16]; Table II, 4 WAT, 1.12 kg/h): 0 (0-24% control)
- post-emergence herbicidal activity index ([16]; Table II, 4 WAT, 5.6 kg/h): 1 (25-49% control)
- post-emergence herbicidal activity index ([17]; 5.6 kg/h): 3 (75-99% control)
- post-emergence herbicidal activity index ([17]; 11.2 kg/h): 4 (100% control)
- post-emergence herbicidal activity index ([18]; 2 WAT, 0.056 kg/h): 0 (0-24% control)
- post-emergence herbicidal activity index ([18]; 2 WAT, 0.28 kg/h): 0 (0-24% control)
- post-emergence herbicidal activity index ([18]; 2 WAT, 1.12 kg/h): 1 (25-49% control)
- post-emergence herbicidal activity index ([18]; 2 WAT, 5.6 kg/h): 2 (50-74% control)
- post-emergence herbicidal activity index ([18]; 4 WAT, 1.12 kg/h): 1 (25-49% control)
- post-emergence herbicidal activity index ([18]; 4 WAT, 5.6 kg/h): 2 (50-74% control)
- post-emergence herbicidal activity index ([19]; 5.6 kg/h): 4 (100% control)
- post-emergence herbicidal activity index ([19]; 11.2 kg/h): 4 (100% control)
- post-emergence herbicidal activity index ([20]; 2 WAT, 0.056 kg/h): 0 (0-24% control)
- post-emergence herbicidal activity index ([20]; 2 WAT, 0.28 kg/h): 0 (0-24% control)
- post-emergence herbicidal activity index ([20]; 2 WAT, 1.12 kg/h): 0 (0-24% control)
- post-emergence herbicidal activity index ([20]; 2 WAT, 5.6 kg/h): 3 (75-99% control)
- post-emergence herbicidal activity index ([20]; 4 WAT, 1.12 kg/h): 0 (0-24% control)
- post-emergence herbicidal activity index ([20]; 4 WAT, 5.6 kg/h): 3 (75-99% control)

From patent US4508663A, “Process for preparing thiosulfenamide derivatives of N-phosphonomethylglycinonitriles” (Monsanto Company, priority 1983, dated 1985)
